# Assay results from patent US20100204277A1, “Compositions and Methods for Controlling Infestation” (HATCHTECH PTY LTD., priority 2007, published 2010).
# Like-named read-outs stand apart in the source and are kept apart here. Non-standard residues stand in square brackets, D forms with d. Residues, ends and D or L forms follow the SMILES beside them. *: point of attachment. Sta = CC(C)C[C@H](N)[C@@H](O)CC(=O)O; Isovaleryl = CC(C)CC(=O)*
# Key:
# [1] = tested on: Lice (L) / Plutella (P) eggs; assay type: in vivo
# Procedure: Log LD50 is obtained from the observed percentage ovicidal activity by conversion using a modified logit transformation. The observed percentage ovicidal activity values were transformed using the equation:
# The additional 5% was used to allow a number to be calculated when 0% and 100% activity was observed. The BA is a crude correction to the log of the concentration at which the compounds were tested. Correlation between BA values and LD50 allows the calculation of Log LD50. […] A number of metal chelating agents with potential for inhibiting the remodelling events associated with thin membrane egg hatching in lice were analysed by comparing their percentage ovicidal activity in lice at different concentrations, their logit calculated pLD50, Pref pLD50, Activity class, clogP and molar refractivity were determined.
# [2] = tested on: Plutella xylostella eggs (Waite strain); assay: Plutella xylostella egg hatch (egg dip)
# Procedure: Several hundred Plutella xylostella eggs (Waite strain) were collected, that had been laid over a 24 hour period.
# The egg masses were then placed in a humid box at 25° C. until egg hatch. Control eggs were exposed to absolute methanol as described above. At day 6 post laying the eggs were assessed from the different treatments and the percentage of egg hatch determined relative to the control as shown in Table 9.
# Batches of Plutella eggs that were laid on either fine cloth or parafilm were dipped in a specific inhibitor solution for between 2-10 seconds, the excess solution was drained by blotting with dry tissue paper. The egg masses were then placed in a humid box at 25 degrees until egg hatch. Control eggs were exposed to absolute methanol as described above or not treated. At day 6 post laying the eggs were assessed from the different treatments and the percentage of egg hatch determined relative to the controls as shown in Tables 10 and 11.
# The egg masses were then placed in a humid box at 25 degrees until egg hatch. Control eggs were exposed to absolute ethanol as described above. On day 6 post laying the eggs were assessed from the different treatments and the percentage of egg hatch determined relative to the control.
# Plutella xylostella eggs = assay: Glass house ovicidal test, Plutella eggs on cabbage plants; assay type: in vivo; details: 10 eggs per plant
# From the text: A number of treatments and replicates were set up in the glass house using young cabbage plants that were at the 4-5 leaf stage. Plutella xylostella eggs were laid by gravid females on the leaves such that each plant contained 10 eggs. The plants were sprayed with a commercial ovicide or using the compounds 5,5′-dimethyl-2,2′-dipyridyl and 5,5′ diethyl-2,2′-dipyridyl in a formulation at the rate of 200 L/Ha using a track sprayer. Controls of water only or Placebo only were also included. The ovicidal efficacy was monitored over a number of days an the number of eggs hatching and caterpillar larvae emerging recorded (Table 22).
# [3] = tested on: proteases in louse egg shell washings (ESW); assay: Gelatine substrate SDS-PAGE of louse egg shell washings incubated with protease inhibitors; assay type: biochemical, Pediculus humanus humanus; details: gelatine SDS-PAGE strips; EDTA 10 mM, 1,10-phenanthroline 10 mM, PMSF 5 mM, E-64 10 μM, Pepstatin 5 μM; 3 hrs at 37° C.
# Procedure: Within 12 hours of hatching 50 body lice eggs (Pediculus humanus humanus) were removed from the hair and placed in a 1 mL eppendorf tube. 20 μL of distilled water was added to the unhatched eggs and the preparation incubated for 30 minutes at 32° C. The 20 μL was recovered, freeze dried and stored at −70° C. This sample was referred to as sample 1. A number of other samples were also collected as described. Sample 2 was collected by removing the unhatched louse eggs from four hairs that were approximately 3 cm long, cutting the hair into 0.5 cm lengths, and placing them into a microfuge tube containing 20 μl of distilled water and incubating at 32° C. for 30 minutes. Sample 3 was collected as for sample 2, but the hair was placed in a tube containing 10 mL of 1% sodium hypochlorite for 1 minute followed by five 1 minute washes in 25 mL of distilled water to remove the sodium hypochlorite before being incubated in a microfuge tube containing 20 μl of distilled water and incubated as for Sample 2. Sample 4 was collected from unhatched eggs which were removed from the hair and washed with 1% sodium hypochlorite and incubated in 20 μl of distilled water in the same manner as the hair in Sample 3. Finally, Sample 5 was collected from eggs that were within 24 hrs of hatching which were washed with 1% sodium hypochlorite, then returned to the incubator at 32° C. until they hatched, the empty egg shells collected 0-2 hrs after egg-hatching, placed in a 1 mL microfuge tube containing 20 μl of distilled water and incubated as for Samples 1-4. For all samples 1-5 the 20 μl of fluid was recovered, freeze-dried and stored at −70° C. The washings recovered from these freshly hatched egg shells are referred to as egg-shell-washings (ESWs). In order to look for the presence of proteases present in these different samples, the freeze-dried samples were resuspended in 15 μL of non-reducing SDS sample buffer, centrifuged at 10,000 g for 2 minutes and the entire 15 μL loaded on to 10% gelatine substrate SDS-PAGE gels. Gels were run at 4° C. for 10 minutes at 10 mA followed by a further 25 minutes at 15 mA per gel. They were then incubated for 2×20 minutes in a 2.5% Triton-X 100 solution followed by a three hour incubation in 0.1M Tris/HCl containing 1 mM CaCl2 pH 8.0. Activity was detected as clear areas on the gel the result of protease activity degrading the gelatine within the gel.
# Protease activity in the ESWs from louse eggs was also examined using two-dimensional gel electrophoresis. It was necessary to collect large numbers of freshly hatched egg shells. Following egglaying onto pieces of cloth, adult female lice were removed and the cloth with the eggs washed with 1% sodium hypochlorite as for collection of ESWs. The eggs were then returned to the incubator and permitted to hatch. Typically 100 to 500 hatched egg shells were collected (0-2 hours post hatching), placed in a microfuge tube containing 200 μl of distilled water, incubated and sample treated as described above. For analysis, ESWs were resuspended in rehydration buffer (8 M Urea, 2% 3-[(3-cholamidopropyl) dimethylammonio]-1-propanesulfonate 2% Immobilised pH gradient buffer 3-10 (Amersham Phamacia Biotech, Uppsala, Sweden)) and used to rehydrate 7 cm Immobiline Dry strips pH 3-10 (Amersham Bioscience) overnight. Strips were transferred to the Multiphor II (Pharmacia, Sweden) apparatus, electrophoresed in the first dimension at 200 V for 1 min, increasing to 3,500 V over the next 90 min followed by 65 min at 3,500 V, equilibrated (6 M urea, 30% glycerol, 50 mM Tris pH 8.8 and 2% SDS) and then run on a 10% SDS-PAGE gel containing 0.1% gelatin for the second dimension. The gel was then run and developed as previously described.
# 10% SDS-PAGE gelatine substrate gels were loaded with freeze dried egg shell washings from 100 lice eggs that had been resuspended in 50 μL of non-reducing sample buffer with samples run at 10 μL per lane. […]
# [4] = 10 mM (200 L/Ha), with wetting agent 0.3 ml/L
# [5] = 20 mM (200 L/Ha), with wetting agent 0.3 ml/L
smiles,measurement,setting,value
N[C@@H]1CCCC[C@H]1O (relative stereo) [Trans-2-aminocyclohexanol],Activity class 0 = inactive 1 = low 2 = med 3 = high,"[1]; 10 mM, Lice/Plutella: ND P",0 (A pLD50 value less than 2 is considered inactive (Class 0))
"Cc1cc(C)cc(C(=O)CC(=O)c2cc(C)cc(C)c2)c1 [1,3-Bis-(3,5-dimethyl-phenyl)-propane-1,3-dione]",Activity class 0 = inactive 1 = low 2 = med 3 = high,"[1]; 10 mM, Lice/Plutella: ND P",0 (A pLD50 value less than 2 is considered inactive (Class 0))
"COc1ccc(C(=O)CC(=O)c2ccc(OC)cc2)cc1 [1,3-Bis-(4-methoxy-phenyl)-propane-1,3-dione]",Activity class 0 = inactive 1 = low 2 = med 3 = high,"[1]; 10 mM, Lice/Plutella: ND P",0 (A pLD50 value less than 2 is considered inactive (Class 0))
"CC(C)(C)c1ccc(C(=O)CC(=O)c2ccc(C(C)(C)C)cc2)cc1 [1,3-Bis-(4-tert-butyl-phenyl)-propane-1,3-dione]",Activity class 0 = inactive 1 = low 2 = med 3 = high,"[1]; 10 mM, Lice/Plutella: ND P",0 (A pLD50 value less than 2 is considered inactive (Class 0))
"O=C(CC(=O)c1cccnc1)c1cccnc1 [1,3-dipyridin-3-yl-propane-1,3-dione]",Activity class 0 = inactive 1 = low 2 = med 3 = high,"[1]; 10 mM, Lice/Plutella: ND P",0 (A pLD50 value less than 2 is considered inactive (Class 0))
"COc1ccc(C(=O)CC(=O)c2ccc(C(C)(C)C)cc2)cc1 [1-(4-tert-butylphenyl)-3-(4-methoxyphenyl)-propane-1,3-dione]",Activity class 0 = inactive 1 = low 2 = med 3 = high,"[1]; 10 mM, Lice/Plutella: L P",0 (A pLD50 value less than 2 is considered inactive (Class 0))
"c1ccc2nc(-c3ccc4ccccc4n3)ccc2c1 [2,2′-biquinoline]",Activity class 0 = inactive 1 = low 2 = med 3 = high,"[1]; 10 mM, Lice/Plutella: L P",0 (A pLD50 value less than 2 is considered inactive (Class 0))
c1ccc(-c2ccc3ccccc3n2)nc1 [2-(2-pyridinyl)quinoline],Activity class 0 = inactive 1 = low 2 = med 3 = high,"[1]; 10 mM, Lice/Plutella: P",1 (a pLD50 value between 2 and 3 is considered weakly active (Class 1))
same,% Inhibition of egg hatch relative to control,"[2]; 10 mM, Example 18, eggs on fine cloth dipped approximately 2 seconds, day 6 post laying",able to inhibit
CC(=O)C1CCCCC1=O (stereo not shown) [2-Acetylcyclohexanone],Activity class 0 = inactive 1 = low 2 = med 3 = high,"[1]; 10 mM, Lice/Plutella: ND P",0 (A pLD50 value less than 2 is considered inactive (Class 0))
c1ccc(Cc2ccccn2)cc1 [2-benzyl-pyridine],Activity class 0 = inactive 1 = low 2 = med 3 = high,"[1]; 10 mM, Lice/Plutella: L P",0 (A pLD50 value less than 2 is considered inactive (Class 0))
"O=C(CC(=O)C(F)(F)F)c1ccccc1 [4,4,4-Trifluoro-1-phenyl-butane-1,3-dione]",Activity class 0 = inactive 1 = low 2 = med 3 = high,"[1]; 10 mM, Lice/Plutella: L P",0 (A pLD50 value less than 2 is considered inactive (Class 0))
"Cc1ccnc(-c2cc(C)ccn2)c1 [4,4′-dimethyl-2,2′-dipyridyl]",egg hatching of Plutella eggs (Tables 10 and 11),"[2]; 10 and 1 mM, cloth or parafilm",significantly inhibit
"c1cnc2ccc3ncccc3c2c1 [4,7-phenanthroline]",Activity class 0 = inactive 1 = low 2 = med 3 = high,"[1]; 10 mM, Lice/Plutella: L P",0 (A pLD50 value less than 2 is considered inactive (Class 0))
c1ccc(-c2cc(N3CCOCC3)c3ccccc3n2)nc1 [4-Morpholin-4-yl-2-pyridin-2-yl-quinoline],Activity class 0 = inactive 1 = low 2 = med 3 = high,"[1]; 10 mM, Lice/Plutella: L P",0 (A pLD50 value less than 2 is considered inactive (Class 0))
"CCc1ccc(-c2ccc(CC)cn2)nc1 [5,5′diethyl-2,2′-dipyridyl]",# LARVAE EMERGED 0-24 h,"Plutella xylostella eggs; 10 mM (200 L/Ha), No Wetting Agent",0
same,# LARVAE EMERGED 0-24 h,Plutella xylostella eggs; [4],0
"Cc1ccc(-c2ccc(C)cn2)nc1 [5,5′dimethyl-2,2′-dipyridyl]",# LARVAE EMERGED 0-24 h,Plutella xylostella eggs; [4],0
same,# LARVAE EMERGED 24-48 h,Plutella xylostella eggs; [4],0
same,# LARVAE EMERGED 0-24 h,Plutella xylostella eggs; [5],0
same,# LARVAE EMERGED 24-48 h,Plutella xylostella eggs; [5],0
same,# LARVAE EMERGED 48-72 h,"Plutella xylostella eggs; 20 mM (200 L/Ha), with wetting agent 0.3 ml/L, 48-72 h",0
CC(=O)NO [Acetohydroxamic acid],Activity class 0 = inactive 1 = low 2 = med 3 = high,"[1]; 10 mM, Lice/Plutella: ND P",0 (A pLD50 value less than 2 is considered inactive (Class 0))
CC(=O)CC(=O)c1ccccc1 [Benzoylacetone],Activity class 0 = inactive 1 = low 2 = med 3 = high,"[1]; 1 mM, Lice/Plutella: ND P",0 (A pLD50 value less than 2 is considered inactive (Class 0))
same,Activity class 0 = inactive 1 = low 2 = med 3 = high,"[1]; 10 mM, Lice/Plutella: ND P",1 (a pLD50 value between 2 and 3 is considered weakly active (Class 1))
O=C(CC(=O)c1ccccc1)c1ccccc1 [Dibenzoyl methane],Activity class 0 = inactive 1 = low 2 = med 3 = high,"[1]; 10 mM, Lice/Plutella: P",1 (a pLD50 value between 2 and 3 is considered weakly active (Class 1))
CC(C)C[C@H](NC(=O)[C@H]1O[C@@H]1C(=O)O)C(=O)NCCCCN=C(N)N [E-64],protease activity of egg shell washings compared to untreated controls,[3],no apparent reduction in protease activity
"O=C(O)CN(CCN(CC(=O)O)CC(=O)O)CC(=O)O [EDTA, ethylenediamine tetraacetic acid]",protease activity of egg shell washings compared to untreated controls,[3],reduction in protease activity
COC(=O)CN [Glycine methyl ester],Activity class 0 = inactive 1 = low 2 = med 3 = high,"[1]; 10 mM, Lice/Plutella: ND P",0 (A pLD50 value less than 2 is considered inactive (Class 0))
O=S(=O)(F)Cc1ccccc1 [PMSF],protease activity of egg shell washings compared to untreated controls,[3],no apparent reduction in protease activity
CC(C)CC(=O)N[C@H](C(=O)N[C@H](C(=O)N[C@@H](CC(C)C)[C@@H](O)CC(=O)N[C@@H](C)C(=O)N[C@@H](CC(C)C)[C@@H](O)CC(=O)O)C(C)C)C(C)C [pepstatin] (Isovaleryl-VV[Sta]A[Sta]-OH),protease activity of egg shell washings compared to untreated controls,[3],no apparent reduction in protease activity
